# Measured values from patent US20240174675A1, “SMALL MOLECULE REGULATORS OF ALVEOLAR TYPE 2 CELL PROLIFERATION FOR THE TREATMENT OF PULMONARY DISEASES” (THE SCRIPPS RESEARCH INSTITUTE, priority 2021, published 2024).
# Where a name gives a salt, the structure may show the parent alone.
# Target: T1, Human DPP4 (Homo sapiens, UniProt P27487)
# T1 construct: purchased Sigma-Aldrich MAK088
# Assay: DPP4 activity assay (DPP4 Activity Assay Kit, fluorescent substrate)
# Format: biochemical
# Details: Human DPP4; read-out: DPP4 inhibition IC50 [nM])
# Description: DPP4 activity assay. Human DPP4 activity assay data were obtained using a DPP4 Activity Assay Kit (Sigma-Aldrich, MAK088) according to the manufacturer's instructions. Briefly, 10 μL of DPP4 Assay Buffer were transferred per well in low volume 384-well plates before transferring 10 μL of test compound dissolved in DPP4 assay buffer. To each well was added 5 μL of Master Reaction Mix containing a fluorescent substrate that becomes fluorescent upon cleavage by the enzyme. Fluorescence intensity measurements were recorded at 1-minute time intervals over the course of 20 minutes using an Envision Multimode Plate Reader (PerkinElmer).
# T1 sequence (P27487 whole entry): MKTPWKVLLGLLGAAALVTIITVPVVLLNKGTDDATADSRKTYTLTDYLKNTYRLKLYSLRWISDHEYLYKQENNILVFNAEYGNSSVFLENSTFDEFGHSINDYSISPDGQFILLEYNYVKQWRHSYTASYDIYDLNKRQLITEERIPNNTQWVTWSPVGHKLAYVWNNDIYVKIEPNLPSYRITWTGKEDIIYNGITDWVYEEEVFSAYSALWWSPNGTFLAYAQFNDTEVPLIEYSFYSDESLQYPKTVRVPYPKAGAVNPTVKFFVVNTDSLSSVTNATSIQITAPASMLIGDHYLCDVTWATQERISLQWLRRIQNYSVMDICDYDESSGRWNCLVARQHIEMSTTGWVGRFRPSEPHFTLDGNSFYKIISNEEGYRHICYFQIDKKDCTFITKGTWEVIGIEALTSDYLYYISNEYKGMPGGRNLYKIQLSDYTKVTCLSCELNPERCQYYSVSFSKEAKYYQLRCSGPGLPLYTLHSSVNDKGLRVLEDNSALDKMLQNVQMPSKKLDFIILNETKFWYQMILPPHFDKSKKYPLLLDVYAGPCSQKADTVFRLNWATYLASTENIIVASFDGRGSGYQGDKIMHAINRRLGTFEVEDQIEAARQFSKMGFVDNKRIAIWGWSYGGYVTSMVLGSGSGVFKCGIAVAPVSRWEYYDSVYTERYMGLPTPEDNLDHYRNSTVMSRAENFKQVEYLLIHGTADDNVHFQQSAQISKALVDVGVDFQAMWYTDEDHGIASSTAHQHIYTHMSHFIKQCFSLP
row,SMILES,IC50 [nM]
1,CCCCCCCOC12CC3C[C@@H](CC(NCC(=O)N4CCC[C@H]4C#N)(C3)C1)C2 (stereo in doubt) [Compound 6],31
2,"N#C[C@@H]1CCCN1C(=O)CN[C@]12CC3CC(C1)C[C@@](OCCOCCNC[C@H](O)[C@@H](O)[C@H](O)[C@H](O)CO)(C3)C2 (stereo in doubt) [Compound 11, (2S)-1-(((1S,3R,5S)-3-(2-(2-(((2S,3R,4R,5R)-2,3,4,5,6-pentahydroxyhexyl)amino)ethoxy)ethoxy)adamantan-1-yl)glycyl)pyrrolidine-2-carbonitrile]",31.6
3,"N[C@@H](CC(=O)N1CCn2c(C(F)(F)F)nc(C(=O)OCCCCCN3CCOCC3)c2C1)Cc1cc(F)c(F)cc1F [Compound 53, (R)-4-(1-(((5-morpholinopentyl)oxy)carbonyl)-3-(trifluoromethyl)-5,6-dihydroimidazo[1,5-a]pyrazin-7(8H)-yl)-4-oxo-1-(2,4,5-trifluorophenyl)butan-2-aminium (2R,3R)-3-carboxy-2,3-dihydroxypropanoate]",1
4,"N#C[C@@H]1C[C@@H]2C[C@@H]2N1C(=O)[C@@H](N)[C@]12CC3C[C@H](C[C@](OCCO)(C3)C1)C2 [Compound 16, (1S,3S,5S)-2-((2S)-2-amino-2-((1S,3R,5S)-3-(2-hydroxyethoxy)adamantan-1-yl)acetyl)-2-azabicyclo[3.1.0]hexane-3-carbonitrile]",7.9
5,"CC#CCn1c(N2CCC[C@@H](N)C2)nc2c1c(=O)n(Cc1nc(NCCCCCCCn3cc(CN(C[C@H](O)[C@@H](O)[C@H](O)[C@H](O)CO)C[C@H](O)[C@@H](O)[C@H](O)[C@H](O)CO)nn3)ccc1C(=O)OC)c(=O)n2C [Compound 34, methyl 2-((8-((R)-3-aminopiperidin-1-yl)-7-(but-2-yn-1-yl)-3-methyl-2,6-dioxo-2,3,6,7-tetrahydro-1H-purin-1-yl)methyl)-6-((7-(4-((bis((2S,3R,4R,5R)-2,3,4,5,6-pentahydroxyhexyl)amino)methyl)-1H-1,2,3-triazol-1-yl)heptyl)amino)nicotinate]",41
6,"CCN(Cc1ccc(CNC(=O)OCCO[C@]23CC4C[C@H](C2)C[C@@]([C@H](N)C(=O)N2[C@H](C#N)C[C@@H]5C[C@@H]52)(C4)C3)cc1)C[C@H](O)[C@@H](O)[C@H](O)[C@H](O)CO [Compound 23, 2-(((1R,3S,5S)-3-((S)-1-amino-2-((1S,3S,5S)-3-cyano-2-azabicyclo[3.1.0]hexan-2-yl)-2-oxoethyl)adamantan-1-yl)oxy)ethyl (4-((ethyl((2S,3R,4R,5R)-2,3,4,5,6-pentahydroxyhexyl)amino)methyl)benzyl)carbamate Formate]",4.2
7,"CCN(Cc1ccc(CNC(=O)OCCOCCO[C@@]23CC4C[C@@H](C[C@@](NCC(=O)N5CCC[C@H]5C#N)(C4)C2)C3)cc1)C[C@H](O)[C@@H](O)[C@H](O)[C@H](O)CO [Compound 12, 2-(2-(((1R,3S,5S)-3-((2-((S)-2-cyanopyrrolidin-1-yl)-2-oxoethyl)amino)adamantan-1-yl)oxy)ethoxy)ethyl (4-((ethyl((2S,3R,4R,5R)-2,3,4,5,6-pentahydroxyhexyl)amino)methyl)benzyl)carbamate]",7.9
8,N#C[C@@H]1C[C@@H]2C[C@@H]2N1C(=O)[C@@H](N)C12CC3C[C@H](CC(OCCOC(=O)CNc4ccc(CN(CCO)CCO)cc4)(C3)C1)C2 [Compound 18],12
9,"CC#CCn1c(N2CCC[C@@H](N)C2)nc2c1c(=O)n(Cc1nc(NCCCCCCCn3cc(CN(C[C@H](O)[C@@H](O)[C@H](O)[C@H](O)CO)C[C@H](O)[C@@H](O)[C@H](O)[C@H](O)CO)nn3)ccc1C(=O)O)c(=O)n2C [Compound 35, 2-((8-((R)-3-aminopiperidin-1-yl)-7-(but-2-yn-1-yl)-3-methyl-2,6-dioxo-2,3,6,7-tetrahydro-1H-purin-1-yl)methyl)-6-((7-(4-((bis((2S,3R,4R,5R)-2,3,4,5,6-pentahydroxyhexyl)amino)methyl)-1H-1,2,3-triazol-1-yl)heptyl)amino)nicotinic acid]",34.3
10,"CCCCCCCC(=O)OCOC12CC3CC(CC(NCC(=O)N4CCC[C@H]4C#N)(C3)C1)C2 [Compound 7, ((3-((2-((S)-2-cyanopyrrolidin-1-yl)-2-oxoethyl)amino)adamantan-1-yl)oxy)methyl Octanoate]",32
11,"CCCCCCCS(=O)C12CC3C[C@@H](CC(NCC(=O)N4CCC[C@H]4C#N)(C3)C1)C2 (stereo in doubt) [Compound 3, (2S)-1-(((1S,3R,5S)-3-(heptylsulfinyl)adamantan-1-yl)glycyl)pyrrolidine-2-carbonitrile]",9
12,"N#C[C@@H]1CCCN1C(=O)CN[C@@]12CC3C[C@@H](C1)C[C@](OCCOCCn1cc(CNC[C@H](O)[C@@H](O)[C@H](O)[C@H](O)CO)nn1)(C3)C2 [Compound 14, (2S)-1-(((1S,3R,5S)-3-(2-(2-(4-((((2S,3R,4R,5R)-2,3,4,5,6-pentahydroxyhexyl)amino)methyl)-1H-1,2,3-triazol-1-yl)ethoxy)ethoxy)adamantan-1-yl)glycyl)pyrrolidine-2-carbonitrile]",8.2
13,"N#C[C@@H]1C[C@@H]2C[C@@H]2N1C(=O)[C@@H](N)[C@]12CC3CC(C[C@](OCCOC(=O)NCc4ccc(CN(C[C@@H](O)[C@H](O)[C@@H](O)[C@@H](O)CO)C[C@@H](O)[C@H](O)[C@@H](O)[C@@H](O)CO)cc4)(C3)C1)C2 (stereo in doubt) [Compound 22, 2-(((1R,3S,5S)-3-((S)-1-amino-2-((1S,3S,5S)-3-cyano-2-azabicyclo[3.1.0]hexan-2-yl)-2-oxoethyl)adamantan-1-yl)oxy)ethyl (4-((bis((2S,3R,4R,5R)-2,3,4,5,6-pentahydroxyhexyl)amino)methyl)benzyl)carbamate trifluoracetate salt]",6.6
14,"N[C@@H](CC(=O)N1CCn2c(C(F)(F)F)nc(C(=O)OCCCN3CCOCC3)c2C1)Cc1cc(F)c(F)cc1F [Compound 51, (R)-4-(1-((3-morpholinopropoxy)carbonyl)-3-(trifluoromethyl)-5,6-dihydroimidazo[1,5-a]pyrazin-7(8H)-yl)-4-oxo-1-(2,4,5-trifluorophenyl)butan-2-aminium (2R,3R)-3-carboxy-2,3-dihydroxypropanoate]",0.18
15,"CCCCCCCOC(=O)NC12CC3CC(CC(NCC(=O)N4CCC[C@H]4C#N)(C3)C1)C2 [Compound 1, Heptyl(3-((2-((S)-2-cyanopyrrolidin-1-yl)-2-oxoethyl)amino)adamantan-1-yl)carbamate]",31
16,CCCCCCN(Cc1cn(CCOCCOC23CC4C[C@H](C2)CC([C@H](N)C(=O)N2[C@H](C#N)C[C@@H]5C[C@@H]52)(C4)C3)nn1)C[C@H](O)[C@@H](O)[C@H](O)[C@H](O)CO [Compound 20],47.8
17,CC#CCn1c(N2CCC[C@@H](N)C2)nc2c1c(=O)n(Cc1ccc(Cl)cc1C(=O)OC(C)C)c(=O)n2C [Compound 37],700
18,CCCCCCN(Cc1cn(CCOCCOC23CC4CC(CC(NCC(=O)N5CCC[C@H]5C#N)(C4)C2)C3)nn1)C[C@H](O)[C@@H](O)[C@H](O)[C@H](O)CO [Compound 15],17.4
19,"CC#CCn1c(N2CCC[C@@H](N)C2)nc2c1c(=O)n(Cc1ccccc1B(O)O)c(=O)n2C [Compound 27, (R)-(2-((8-(3-aminopiperidin-1-yl)-7-(but-2-yn-1-yl)-3-methyl-2,6-dioxo-2,3,6,7-tetrahydro-1H-purin-1-yl)methyl)phenyl)boronic Acid]",5.3
20,"CC#CCn1c(N2CCC[C@@H](N)C2)nc2c1c(=O)n(Cc1ccc(Cl)cc1C(=O)OCCOCCn1cc(CN(CCCCCC)C[C@H](O)[C@@H](O)[C@H](O)[C@H](O)CO)nn1)c(=O)n2C [Compound 41, 2-(2-(4-((hexyl(2,3,4,5,6-pentahydroxyhexyl)amino)methyl)-1H-1,2,3-triazol-1-yl)ethoxy)ethyl 2-((8-((R)-3-aminopiperidin-1-yl)-7-(but-2-yn-1-yl)-3-methyl-2,6-dioxo-2,3,6,7-tetrahydro-1H-purin-1-yl)methyl)-5-chlorobenzoate]",> 10000
21,[N-]=[N+]=NCCOCCOCCNC(=O)c1nc(C(F)(F)F)n2c1CN(C(=O)C[C@H](N)Cc1cc(F)c(F)cc1F)CC2 [Compound 43],1
22,"CCCCCCN(Cc1cn(CCOCCOCCOC23CC4CC(CC(NCC(=O)N5CCC[C@H]5C#N)(C4)C2)C3)nn1)C[C@H](O)[C@@H](O)[C@H](O)[C@H](O)CO [Compound 8, (2S)-1-(((1S,3R,5S)-3-(2-(2-(2-(4-((hexyl((2S,3R,4R,5R)-2,3,4,5,6-pentahydroxyhexyl)amino)methyl)-1H-1,2,3-triazol-1-yl)ethoxy)ethoxy)ethoxy)adamantan-1-yl)glycyl)pyrrolidine-2-carbonitrile]",14.2
23,"[N-]=[N+]=NCCOCCOCCOC(=O)c1nc(C(F)(F)F)n2c1CN(C(=O)C[C@H](N)Cc1cc(F)c(F)cc1F)CC2 [Compound 42, 2-(2-(2-azidoethoxy)ethoxy)ethyl (R)-7-(3-amino-4-(2,4,5-trifluorophenyl)butanoyl)-3-(trifluoromethyl)-5,6,7,8-tetrahydroimidazo[1,5-a]pyrazine-1-carboxylate]",0.4
24,"N[C@@H](CC(=O)N1CCn2c(C(F)(F)F)nc(C(=O)OCCOCCOCCn3cc(CN(C[C@H](O)[C@@H](O)[C@H](O)[C@H](O)CO)C[C@H](O)[C@@H](O)[C@H](O)[C@H](O)CO)nn3)c2C1)Cc1cc(F)c(F)cc1F [Compound 48, 2-(2-(2-(4-((bis((2S,3R,4R,5R)-2,3,4,5,6-pentahydroxyhexyl)amino)methyl)-1H-1,2,3-triazol-1-yl)ethoxy)ethoxy)ethyl 7-((R)-3-amino-4-(2,4,5-trifluorophenyl)butanoyl)-3-(trifluoromethyl)-5,6,7,8-tetrahydroimidazo[1,5-a]pyrazine-1-carboxylate]",0.55
